Measurements taken from patent US20130210852A1, “METHODS FOR TREATING INFECTION” (priority 2010, published 2013).
Values after ≈ are worked out from the molar mass of the structure shown.

Key:
[1] = system: EAEC strain O42 adherence to HEp-2 cells; experiment: HEp-2 cell attachment assay (microscopy after Wright-Giemsa staining); format: cell-based, human
[2] = system: EAEC adherence with dialyzed conditioned medium of HEp-2 cells; experiment: Effect of dialyzed HEp-2 supernatants on EAEC adherence; format: cell-based, human; design: dose or concentration left out as unconfirmed; settings: HEp-2 treated 24 h, supernatant dialyzed; chambers with or without HEp-2 cells, 3 h
Description: HEp-2 cells were cultured in T-175 flasks as described above. […] After 24 h, the medium was collected, loaded into regenerated cellulose dialysis tubing (cutoff, 6 to 8 kDa; Spectra/Por, Rancho Domiguez, Calif.), and dialyzed against 4 liters of PBS changed four times. Each dialysis step lasted at least 6 h and was carried out at 4° C. Dialyzed supernatants were either used immediately in adherence assays or stored at −20° C. until use.
The effect of supernatants on EAEC adherence was determined by mixing EAEC with the dialyzed media from the different antibiotic (or control) treatment groups and adding the bacteria to HEp-2 cells cultured in chambered slides or to chambered slides with no HEp-2 cells. Adherence was visualized microscopically as described above.

HEp-2 cells = experiment: Cytokine arrays of HEp-2 supernatants (Panomics); settings: antibiotic 64 μg/ml, 24 h
C difficile = experiment: Susceptibility testing of C difficile isolates (rifaximin agar dilution, rifampin E strips)

CO[C@H]1/C=C/O[C@@]2(C)Oc3c(C)c(O)c4c(O)c(c(/C=N/N5CCN(C)CC5)c(O)c4c3C2=O)NC(=O)/C(C)=C\C=C\[C@H](C)[C@H](O)[C@@H](C)[C@@H](O)[C@@H](C)[C@H](OC(C)=O)[C@@H]1C [Rifampin]
EAEC O42 adherence to HEp-2 cells (microscopy) [1]: adhered in the traditional stacked-brick formation
EAEC adherence after mixing with dialyzed supernatants of antibiotic-treated HEp-2 cells [2]: adhered to chambers independently of the presence of HEp-2 cells
cytokine profile of HEp-2 supernatants (HEp-2 cells): had the same profile, except that MIP5 was not detected
MIC50 against C difficile (C difficile; 359 isolates): <2 ng/mL
MIC90 against C difficile (C difficile; 359 isolates): 4000 ng/mL (≈ 4860 nM)
MIC50 against C difficile (C difficile; 359 isolates, listed as rifampin): < 2 ng/mL
Isolates resistant to rifampin (n = 28), (%) (C difficile; genotype A +, B +, BT +, tcdC-del +): (7) %
Isolates resistant to rifampin (n = 28), (%) (C difficile; genotype A +, B +, BT +, tcdC-del −): (14) %
Isolates resistant to rifampin (n = 28), (%) (C difficile; genotype A +, B +, BT −, tcdC-del +): (18) %
Isolates resistant to rifampin (n = 28), (%) (C difficile; genotype A +, B +, BT −, tcdC-del −): (46) %
Isolates resistant to rifampin (n = 28), (%) (C difficile; genotype A −, B −, BT −, tcdC-del −): (14) %
